How the values were obtained:
[1] = system: HDF cells; assay: influence of endocytosis inhibitor on cell-cluster formation by Lactobacillus 70S ribosome fraction; assay type: cell-based, Human; conditions: 70S ribosome fraction 0.5 μg/50 μl/well, HDF cells 20,000 cells, cultured 2 days
Protocol: (§1) In the presence of an endocytosis inhibitor shown in the following Table, the cell-cluster forming ability was examined using the Lactobacillus 70S ribosome fraction prepared in Example 6. The 70S ribosome fraction was placed into a 96-well plate (0.5 μg/50 μl/well), HDF cells (20,000 cells/100 μl) were added, and each inhibitor (50 μl) was added. The cells were cultured in a CO2 incubator for 2 days, and the number of the formed cell-clusters was measured. The inhibitor was used with the concentration shown in Table being the standard concentration (concentration “5” in FIG. 9). Accordingly, for example, in the case of CP, the concentration “5” is 10 μM, and the concentration “10” is 20 μM. In addition, the MTT assay (measurement of cell death by colorimetric method) was conducted.

[2] = system: HDF cells; assay: MTT assay (measurement of cell death by colorimetric method); assay type: cell-based; conditions: HDF cells with 70S ribosome fraction, 2 days
Protocol: as §1

| Molecule | number of the formed cell-clusters in the presence of inhibitor [1] | toxicity of inhibitor, considered cause of decreased cell-cluster number (MTT assay, cell survival ratio) [2] |
| --- | --- | --- |
| CN(C)CCCN1c2ccccc2Sc2ccc(Cl)cc21 [CP, Chlorpromazine] | decreased | – |
| C[C@@H]1[C@H](O)[C@@H](C)/C=C/C=C/CC/C=C/C=C/C=C/C=C/C(O[C@H]2O[C@H](C)[C@@H](O)[C@H](N)[C@@H]2O)CC2O[C@](O)(CC(O)C(O)CCC(O)CC(O)CC(O)CC(=O)O[C@H]1C)CC(O)C2C(=O)O (stereo partly shown) [NY, Nystatin] | decreased | toxicity |
| Methyl-β-cyclodextrin [MC] | increased concentration-dependently | – |
